Measured values reported in patent US20100029685A1 (NeuroSearch A/S, priority 2006, published 2010).

What was measured:
[1] = target: T1, human nicotinic acetylcholine receptor subtype α4β2 (Homo sapiens, UniProt P17787+P43681); experiment: FLIPR nAChR α4β2 positive allosteric modulator activity; assay type: cell-based; conditions: HEK-293 cells stably expressing hα4β2; for Efficacy Response relative to Nicotine (%): maximal positively modulated response relative to maximal nicotine response (100 μM); for EC50: positive modulation of response to sub-maximal nicotine (EC20-30), peak values
T1 construct: expressed in transfected cells
T1 sequence (P43681 29-627 limits assumed): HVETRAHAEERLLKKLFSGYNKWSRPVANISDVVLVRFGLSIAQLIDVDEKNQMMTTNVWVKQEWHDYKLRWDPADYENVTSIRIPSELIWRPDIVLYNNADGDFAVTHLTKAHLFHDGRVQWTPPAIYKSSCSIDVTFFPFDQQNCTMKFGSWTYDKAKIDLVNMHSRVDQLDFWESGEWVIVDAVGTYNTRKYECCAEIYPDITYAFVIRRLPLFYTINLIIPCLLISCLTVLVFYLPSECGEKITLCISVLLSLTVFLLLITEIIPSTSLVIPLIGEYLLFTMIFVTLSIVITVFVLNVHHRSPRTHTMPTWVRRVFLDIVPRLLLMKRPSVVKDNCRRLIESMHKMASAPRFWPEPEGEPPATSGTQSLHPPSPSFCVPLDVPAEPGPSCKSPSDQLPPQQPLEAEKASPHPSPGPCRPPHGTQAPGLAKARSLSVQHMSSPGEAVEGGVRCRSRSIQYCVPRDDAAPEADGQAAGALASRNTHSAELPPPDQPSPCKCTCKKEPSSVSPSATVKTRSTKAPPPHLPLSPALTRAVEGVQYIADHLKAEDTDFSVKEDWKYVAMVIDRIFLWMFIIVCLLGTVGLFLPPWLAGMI
T1 sequence (P17787 26-502): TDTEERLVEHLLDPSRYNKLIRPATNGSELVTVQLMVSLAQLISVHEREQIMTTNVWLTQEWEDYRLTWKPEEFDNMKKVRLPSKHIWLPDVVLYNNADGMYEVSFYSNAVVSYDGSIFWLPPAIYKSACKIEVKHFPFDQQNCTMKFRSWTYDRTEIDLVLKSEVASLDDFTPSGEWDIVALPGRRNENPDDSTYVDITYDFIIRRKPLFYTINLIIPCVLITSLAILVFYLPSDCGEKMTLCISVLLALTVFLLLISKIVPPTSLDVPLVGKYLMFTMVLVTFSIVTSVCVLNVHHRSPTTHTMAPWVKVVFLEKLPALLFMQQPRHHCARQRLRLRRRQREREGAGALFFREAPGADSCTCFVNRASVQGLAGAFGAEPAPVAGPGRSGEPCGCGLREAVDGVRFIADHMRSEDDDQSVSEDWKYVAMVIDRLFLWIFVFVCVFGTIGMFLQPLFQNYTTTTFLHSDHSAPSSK
Procedure: Characterization of hα4β2 Positive Allosteric Modulators Using FLIPR
The ability is determined relative to a maximal nicotine response (100 μM). The activity is determined as a fluorescence-based assay using a Fluorometric Imaging Plate Reader (FLIPR) as described below in more detail.
Full concentration/response curves are generated and EC50 values are calculated based on peak values. EC50 values (Effective Concentration) represent the concentration of the test substance, at which the nicotine-induced EC20-30 response is positively modulated such that the size of the response equals 50% of the maximal response. The maximal positively modulated response (efficacy) is determined relative to the reference (nicotine) response.

| melting point [°C] | Efficacy Response relative to Nicotine (%) [1] [%] | EC50 [1] [µM] | Structure (SMILES) |
| --- | --- | --- | --- |
| 217 to 223 | – | – | N#Cc1cccc(-c2nnc(-c3cccc(C#N)c3)s2)c1 [Compound 8.2, 3-(5-{3-Cyano-phenyl}-[1,3,4]thiadiazol-2-yl)-benzonitrile] |
| – | 153 | 0.98 | N#Cc1ccc(-c2nnc(-c3cccnc3)o2)s1 [Compound 7.6] |
| 165 to 168 | – | – | O=[N+]([O-])c1ccc(-c2nnc(-c3cccnc3)o2)o1 [Compound 7.2, 3-(5-{5-Nitro-furan-2-yl}-[1,3,4]oxadiazol-2-yl)-pyridine] |
| – | 133 | 0.52 | N#Cc1cccc(-c2nnc(-c3cccnc3)o2)c1 [Compound 7.1, 3-(5-Pyridine-3-yl-[1,3,4]oxadiazol-2-yl)-benzonitrile] |
